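The compound was tested at five concentrations on cells cultured in 96-well plates, with a 48-hour exposure period. GI50: concentration for 50% inhibition of growth.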 Active and inactive are the calls of the source. Cut-off read from the data, not from the text of the source: active = GI50 up to about 1.1 µM and inactive = higher.
Legend:
Experiment in all cases: DTP human tumour cell line panel, 48 h
[1] = test system: OVCAR-8
[2] = test system: SK-OV-3
[3] = test system: HOP-62
[4] = test system: CAKI-1
[5] = test system: 786-0
[6] = test system: HT-29
[7] = test system: HCC 2998
[8] = test system: HCT-116
[9] = test system: RPMI-8226
[10] = test system: EKVX
[11] = test system: LOX IMVI
[12] = test system: OVCAR-5
[13] = test system: IGROV-1
[14] = test system: NCI-H522
[15] = test system: M14
[16] = test system: NCI-H226
[17] = test system: OVCAR-4

Measured: GI50

CC[N+](C)(CC)CC(C)(C)C(=O)/C=C/c1ccc(/C=C/C(=O)C(C)(C)C[N+](C)(CC)CC)cc1
inactive: [1] > 100 µM | [2] > 100 µM | [3] > 100 µM | [4] > 100 µM | [5] > 100 µM | [6] > 100 µM | [7] > 100 µM | [8] > 100 µM | [9] > 100 µM | [10] > 100 µM | [11] > 100 µM | [12] > 100 µM | [13] > 100 µM | [14] > 100 µM | [15] > 100 µM | [16] > 100 µM | [17] > 100 µM

Cn1cnc([N+](=O)[O-])c1Sc1nccn1-c1cccc2ccccc12
inactive: [1] 20.8 µM | [2] 31.8 µM | [3] > 100 µM | [4] 30.9 µM | [5] 48.1 µM | [6] 23.9 µM | [7] 45.5 µM | [8] 19.7 µM | [9] 15.8 µM | [10] 26.9 µM | [11] 13.6 µM | [12] 23.2 µM | [13] 26.7 µM | [14] 8.69 µM | [15] 18.8 µM | [16] 18.2 µM | [17] 24 µM

O=C1CC[C@@H](S(=O)(=O)c2ccccc2)[C@H](/C=C/c2ccccc2)O1
inactive: [1] > 100 µM | [2] > 100 µM | [3] > 100 µM | [5] > 100 µM | [6] > 100 µM | [7] > 100 µM | [8] > 100 µM | [9] > 100 µM | [10] > 100 µM | [11] > 100 µM | [12] > 100 µM | [13] > 100 µM | [14] > 100 µM | [15] > 100 µM | [16] > 100 µM | [17] > 100 µM

COC(=O)c1c2cccccc-2c(Cc2c3cccccc-3c(C(=O)OC)c2O)c1O
inactive: [1] > 100 µM | [2] > 100 µM | [3] > 100 µM | [4] > 100 µM | [5] > 100 µM | [6] > 100 µM | [7] > 100 µM | [8] > 100 µM | [9] > 100 µM | [10] > 100 µM | [11] > 100 µM | [12] > 100 µM | [13] > 100 µM | [14] > 100 µM | [15] > 100 µM | [16] > 100 µM | [17] > 100 µM

CCOc1cc2c(cc1OC)c[n+](C)c1c3cc(OC)c(OC)cc3ccc21
inactive: [1] > 60.3 µM | [2] > 100 µM | [3] > 81.7 µM | [4] > 67.8 µM | [5] > 42.1 µM | [6] > 100 µM | [7] > 100 µM | [8] 49.1 µM | [9] 40.7 µM | [10] > 100 µM | [11] 46.6 µM | [12] > 49.1 µM | [13] > 66.5 µM | [14] > 52.1 µM | [15] > 100 µM | [16] > 57.1 µM | [17] > 100 µM

CCN(CC)C(=S)SCC(=O)Nc1nc2c(s1)CCCC2
inactive: [1] > 100 µM | [2] > 100 µM | [3] > 100 µM | [5] 60.8 µM | [6] 59.8 µM | [7] > 100 µM | [8] 64.3 µM | [9] > 100 µM | [11] 57 µM | [12] > 100 µM | [13] > 100 µM | [14] 28 µM | [15] > 100 µM | [16] > 100 µM | [17] > 100 µM

Cc1cccc(C)c1NC(=O)CCC/C(CC(=O)c1ccc(F)cc1)=N\NC(=O)C(=O)NN
inactive: [1] > 100 µM | [2] > 100 µM | [4] > 100 µM | [5] > 100 µM | [6] > 100 µM | [7] > 100 µM | [8] > 100 µM | [9] > 100 µM | [10] > 100 µM | [11] > 100 µM | [12] > 100 µM | [13] > 100 µM | [15] > 100 µM | [16] > 100 µM | [17] > 100 µM

C=C(COC(C)=O)CC(/C=C(\C)CC/C=C(\C)CO)OC(C)=O (configuration not stated)
inactive: [1] > 100 µM | [2] > 100 µM | [3] > 100 µM | [5] > 100 µM | [6] > 100 µM | [7] > 100 µM | [8] > 100 µM | [9] > 10 µM | [10] > 100 µM | [11] > 100 µM | [12] > 100 µM | [13] > 100 µM | [14] > 100 µM | [15] > 100 µM | [16] > 100 µM | [17] > 100 µM

Nc1nc(Cl)cc(NCCCCCNc2cc(Cl)nc(N)n2)n1
inactive: [1] 71.8 µM | [2] > 100 µM | [3] > 100 µM | [4] 17 µM | [5] > 100 µM | [6] > 100 µM | [7] > 100 µM | [8] 30.3 µM | [9] 33.5 µM | [10] 86.5 µM | [11] 25.1 µM | [12] 37.4 µM | [13] > 100 µM | [14] 20 µM | [15] 88.3 µM | [16] 41.4 µM | [17] 34.8 µM

O=C(Cn1ccnc1[N+](=O)[O-])c1ccccc1
inactive: [1] > 100 µM | [2] > 100 µM | [3] > 100 µM | [4] > 100 µM | [5] > 100 µM | [6] > 100 µM | [7] > 100 µM | [9] > 100 µM | [10] > 100 µM | [11] > 100 µM | [12] > 100 µM | [13] > 100 µM | [14] > 100 µM | [15] > 100 µM | [16] > 100 µM | [17] > 100 µM

COc1cc2c(c(OC)c1)C(=O)C(=O)C(CC1(C)OCCCO1)=C2
inactive: [1] 11.5 µM | [2] 16.6 µM | [3] 17.5 µM | [4] 5.43 µM | [5] 9.1 µM | [6] 18.4 µM | [7] 16.4 µM | [8] 4.38 µM | [9] 3.56 µM | [10] 15.9 µM | [11] 5.01 µM | [12] 22.9 µM | [13] 14.2 µM | [14] 1.4 µM | [15] 12 µM | [16] 6.17 µM | [17] 6.22 µM

Cn1cc2ccccc2c1-c1nc(F)nc(OCC(=O)[C@H]2CCC3[C@@H]4CCC5=CC(=O)CC[C@]5(C)C4[C@@H](O)C[C@@]32C)n1 (some centres not stated)
inactive: [1] 7.13 µM | [2] 19.1 µM | [3] 22 µM | [4] 3.92 µM | [5] 16.5 µM | [6] 21.6 µM | [7] 25.6 µM | [8] 11.1 µM | [9] 6.61 µM | [10] 23.4 µM | [11] 4.66 µM | [12] 37.8 µM | [13] 7.48 µM | [14] 15.2 µM | [15] 20.3 µM | [16] 19.2 µM | [17] 14.9 µM

Source: ChEMBL document CHEMBL1201862, “PubChem BioAssay data set” (2004)
